Reference: article PMC9240354, “Pharmacokinetics, Pharmacodynamics and Antiviral Efficacy of the MEK Inhibitor Zapnometinib in Animal Models and in Humans” (Frontiers in Pharmacology, 2022)

What was measured:
[1] = adverse events in healthy human volunteers (phase 1); format: in vivo; conditions: n = 8
Source text: Healthy men and women between 18 and 55 years of age (inclusive), who weighed at least 50 kg with a body mass index (BMI) between 18.0 and 31.0 kg/m^2 (inclusive) were enrolled in this study. Exclusion criteria were clinically significant illnesses, positive urine test for selected drugs of abuse, positive alcohol breath test at screening and upon check-in at the clinical site, positive hepatitis panel (including hepatitis B surface antigen [HBsAg] and anti-hepatitis C virus [HCV] antibodies), and positive screens for human immunodeficiency virus (HIV) antibody. This Phase 1 study was a randomized, double-blind, placebo-controlled study (clinicaltrials.gov: NCT04385420) consisting of two parts. Part 1 was a SAD study with 40 healthy volunteers who were randomized to active or placebo treatment in a 4:1 ratio (4 cohorts with n (Zapnometinib) = 8; n (placebo) = 2 in each cohort). Subjects receiving active treatment were treated with either 100 mg, 300 mg, 600 mg, or 900 mg zapnometinib. Part 2 was a MAD study with 30 healthy volunteers in three cohorts with the same randomization as in the SAD part (3 cohorts with n (Zapnometinib) = 8; n (placebo) = 2 in each cohort). Each subject in the MAD cohorts received doses of zapnometinib of either 100 mg, 300 mg, or 600 mg once daily for seven days, or placebo. The safety assessment in this study included monitoring of adverse events (AEs), clinical laboratory tests, electrocardiograms (ECG), vital signs, and physical examination. The study protocol and its amendments were reviewed by the Commissie voor Medische Ethiek ZNA, Antwerp, Belgium. This study was conducted in accordance with the ethical principles that have their origin in the Declaration of Helsinki and the International Council for Harmonization of Technical Requirements for Pharmaceuticals for Human Use (ICH) Note for Guidance on Good Clinical Practice (GCP) (CPMP/ICH/135/95) and with applicable local requirements.

[2] = pharmacokinetics, summary regardless of species; format: in vivo, mice, hamsters, dogs, human; conditions: regardless of species or formulation
Protocol: Pharmacokinetic analysis of the mouse plasma samples was performed using standard procedures at Prolytic GmbH (Frankfurt, Germany). Hamster plasma samples were analyzed at Synovo GmbH (Tuebingen, Germany) using HPLC MS/MS (Agilent 1260 HPLC with Sciex API4500) with linear response for plasma concentrations between 15 nM and 33 µM (6.1 ng/ml to 13.5 μg/ml). Pharmacokinetic analyses of the dog plasma samples were performed at Pharmascience Inc. (Montreal, Canada) using an HPLC MS/MS method for the determination of zapnometinib plasma concentrations. The validated calibration range for this assay is from 0.6 μg/ml to […] for which all validation requirements were successfully evaluated. Regressions, calibration standard, quality control sample, animal sample result tables, acquisition methods and chromatograms were generated by Applied Biosystems Analyst^TM software, version 1.6.2. Plasma concentrations of zapnometinib of the human samples were determined at SGS Life Sciences (Bioanalysis Department, Wavre, Belgium) using a validated HPLC MS/MS method with a lower limit of quantification of 10 ng/ml for the analyte zapnometinib. Statistical analysis was performed by SGS (demography and safety analyses, exposure, and compliance) using SAS® version 9.4 (SAS Institute Inc., Cary, NC, United States).

[3] = tested on: influenza A and B viruses; set-up: method as in Laure et al., 2020; conditions: in vitro, ref Laure et al., 2020, read-out: EC50 antiviral efficacy; cited from earlier work
[4] = tested on: SARS-CoV-2; set-up: method as in Schreiber et al., 2022; conditions: reduction in viral growth in cell lines; ref Schreiber et al., 2022; cited from earlier work
[5] = in vivo; conditions: C57BL/6, mouse
[6] = plasma binding; conditions: stated in discussion, no data shown

In the case of `O=C(O)c1ccc(F)c(F)c1Nc1ccc(I)cc1Cl` [zapnometinib, 2-(2-Chloro-4-Iodophenylamino)-N-3,4-Difluoro benzoic acid], the Abdominal pain ([1]; 100 mg) is reported as 0 n (%), the Back pain ([1]; 100 mg) is reported as 0 n (%) and the Diarrhea ([1]; 100 mg) is reported as 0 n (%). For the same compound, the Dizziness ([1]; 100 mg) was 0 n (%), the Erythema ([1]; 100 mg) was 0 n (%) and the “Gastrointestinal Disorders” value ([1]; 100 mg) was 0 n (%). For the same compound, the Headache ([1]; 100 mg) was 0 n (%), the Hepatic enzyme increase ([1]; 100 mg) was 0 n (%) and the “Infections and Infestations” value ([1]; 100 mg) was 0 n (%). The Investigations ([1]; 100 mg) was 0 n (%), the Nasopharyngitis ([1]; 100 mg) was 0 n (%) and the Neck pain ([1]; 100 mg) was 0 n (%). For the same compound, the “Nervous System Disorders” value ([1]; 100 mg) was 0 n (%), the “Respiratory, thoracic and Mediastinal Disorders” value ([1]; 100 mg) was 0 n (%) and the Rhinorrhea ([1]; 100 mg) was 0 n (%). The “Skin and Subcutaneous Disorders” value ([1]; 100 mg) was 0 n (%), the Throat irritation ([1]; 100 mg) was 0 n (%) and the Abdominal pain ([1]; 300 mg) was 0 n (%). For the same compound, the Back pain ([1]; 300 mg) was 1 (12.5) n (%), the Diarrhea ([1]; 300 mg) was 0 n (%) and the Dizziness ([1]; 300 mg) was 0 n (%). The Erythema ([1]; 300 mg) was 1 (12.5) n (%), the “Gastrointestinal Disorders” value ([1]; 300 mg) was 0 n (%) and the Headache ([1]; 300 mg) was 3 (37.5) n (%). For the same compound, the Hepatic enzyme increase ([1]; 300 mg) was 1 (12.5) n (%), the “Infections and Infestations” value ([1]; 300 mg) was 1 (12.5) n (%) and the Investigations ([1]; 300 mg) was 1 (12.5) n (%). For the same compound, the Nasopharyngitis ([1]; 300 mg) was 1 (12.5) n (%), the Neck pain ([1]; 300 mg) was 1 (12.5) n (%) and the “Nervous System Disorders” value ([1]; 300 mg) was 3 (37.5) n (%). The “Respiratory, thoracic and Mediastinal Disorders” value ([1]; 300 mg) was 1 (12.5) n (%), the Rhinorrhea ([1]; 300 mg) was 1 (12.5) n (%) and the “Skin and Subcutaneous Disorders” value ([1]; 300 mg) was 1 (12.5) n (%). For the same compound, the Throat irritation ([1]; 300 mg) was 0 n (%), the Abdominal pain ([1]; 600 mg) was 0 n (%) and the Back pain ([1]; 600 mg) was 0 n (%). For the same compound, the Diarrhea ([1]; 600 mg) was 0 n (%), the Dizziness ([1]; 600 mg) was 0 n (%) and the Erythema ([1]; 600 mg) was 0 n (%). The “Gastrointestinal Disorders” value ([1]; 600 mg) was 0 n (%), the Headache ([1]; 600 mg) was 1 (12.5) n (%) and the Hepatic enzyme increase ([1]; 600 mg) was 0 n (%). The “Infections and Infestations” value ([1]; 600 mg) was 0 n (%), the Investigations ([1]; 600 mg) was 0 n (%) and the Nasopharyngitis ([1]; 600 mg) was 0 n (%). For the same compound, the Neck pain ([1]; 600 mg) was 0 n (%), the “Nervous System Disorders” value ([1]; 600 mg) was 1 (12.5) n (%) and the “Respiratory, thoracic and Mediastinal Disorders” value ([1]; 600 mg) was 0 n (%). The Rhinorrhea ([1]; 600 mg) was 0 n (%), the “Skin and Subcutaneous Disorders” value ([1]; 600 mg) was 0 n (%) and the Throat irritation ([1]; 600 mg) was 0 n (%). The Abdominal pain ([1]; 900 mg) was 1 (12.5) n (%), the Back pain ([1]; 900 mg) was 0 n (%) and the Diarrhea ([1]; 900 mg) was 1 (12.5) n (%). The Dizziness ([1]; 900 mg) was 0 n (%), the Erythema ([1]; 900 mg) was 1 (12.5) n (%) and the “Gastrointestinal Disorders” value ([1]; 900 mg) was 2 (25.0) n (%). The Headache ([1]; 900 mg) was 1 (12.5) n (%), the Hepatic enzyme increase ([1]; 900 mg) was 0 n (%) and the “Infections and Infestations” value ([1]; 900 mg) was 0 n (%). The Investigations ([1]; 900 mg) was 0 n (%), the Nasopharyngitis ([1]; 900 mg) was 0 n (%) and the Neck pain ([1]; 900 mg) was 0 n (%). The “Nervous System Disorders” value ([1]; 900 mg) was 1 (12.5) n (%), the “Respiratory, thoracic and Mediastinal Disorders” value ([1]; 900 mg) was 1 (12.5) n (%) and the Rhinorrhea ([1]; 900 mg) was 0 n (%). The “Skin and Subcutaneous Disorders” value ([1]; 900 mg) was 1 (12.5) n (%), the Throat irritation ([1]; 900 mg) was 1 (12.5) n (%) and the “time to maximum plasma concentration (Cmax)” value [2] was 2 to 4 h. For the same compound, the EC50 [3] was 4.2 to 6.4 µM, the anti-SARS-CoV-2 activity [4] was “potent anti-SARS-CoV-2 activity” and the half-life [5] was 8 h. It also gave an AUC ([5]; po, 25 mg/kg) of 1390 µg·h/mL, a Cmax ([5]; po, 25 mg/kg) of 69 ± 24 µg/mL and a Tmax ([5]; po, 25 mg/kg, Tmax,1, mice, 25 mg/kg p.o., after first treatment) of 2 h. For the same compound, the Tmax ([5]; po, 25 mg/kg, Tmax,2, mice, 25 mg/kg p.o. twice, second dose at 8 h) was 10 h and the plasma binding [6] was “high plasma binding”.
